Data reported in patent US20100041892A1, “Therapeutic agent for diabetes” (priority 2005, published 2010).
Where a name gives a salt, the structure may show the parent alone.

Row | melting point | SMILES
1 | 106 to 108 °C | CCCCCS(=O)(=O)NC(=O)/C=C/c1ccc(OCCO[Si](C(C)C)(C(C)C)C(C)C)cc1Oc1ncc(C(F)(F)F)cc1Cl
2 | 98 to 100 °C | CCCCCS(=O)(=O)NC(=O)/C=C/c1ccc(OCC(C)(C)O)cc1Oc1ncc(C(F)(F)F)cc1Cl (as salt: acetate) (hydrate or solvate) [Example 250, (2E)-3-[2-{[3-chloro-5-(trifluoromethyl)pyridin-2-yl]oxy}-4-(2-hydroxy-2-methylpropoxy)phenyl]-N-(pentylsulfonyl)acrylamide]
3 | 108 to 108.5 °C | CCCCCS(=O)(=O)NC(=O)/C=C/c1ccc(OCCO[Si](c2ccccc2)(c2ccccc2)C(C)(C)C)cc1Oc1ncc(C(F)(F)F)cc1Cl (hydrate or solvate)
4 | 94 to 96 °C | CCCCS(=O)(=O)NC(=O)OCCCc1ccc(OCCOC)cc1Oc1ncc(C(F)(F)F)cc1Cl.O (hydrate or solvate)
5 | 129 to 129.5 °C | CC(C)Oc1ccc(CCC(=O)NS(=O)(=O)c2ccccc2)c(Oc2ncc(C(F)(F)F)cc2Cl)c1 [Example 4, 3-(2-{[3-chloro-5-(trifluoromethyl)pyridin-2-yl]oxy}-4-isopropoxyphenyl)-N-(phenylsulfonyl)propanamide]
6 | 118 to 120 °C | COCCOc1ccc(CCC(=O)NS(=O)(=O)c2ccc(OC)cc2)c(Oc2ncc(C(F)(F)F)cc2Cl)c1 [Example 7, 3-[2-{[3-chloro-5-(trifluoromethyl)pyridin-2-yl]oxy}-4-(2-methoxyethoxy)phenyl]-N-[(4-methoxyphenyl)sulfonyl]propanamide]
7 | 136 to 138 °C | COCCOc1ccc(CCC(=O)NS(=O)(=O)c2ccc(F)cc2)c(Oc2ncc(C(F)(F)F)cc2Cl)c1 [Example 11, 3-[2-{[3-chloro-5-(trifluoromethyl)pyridin-2-yl]oxy}-4-(2-methoxyethoxy)phenyl]-N-[(4-fluorophenyl)sulfonyl]propanamide]
8 | 89 to 90 °C | COCCOc1ccc(CCCNS(C)(=O)=O)c(Oc2ncc(C(F)(F)F)cc2Cl)c1 [Example 15, N-{3-[2-{[3-chloro-5-(trifluoromethyl)pyridin-2-yl]oxy}-4-(2-methoxyethoxy)phenyl]propyl}methanesulfonamide]
9 | 94 to 95 °C | COCCOc1ccc(CCCNS(=O)(=O)c2ccccc2)c(Oc2ncc(C(F)(F)F)cc2Cl)c1 [Example 16, N-{3-[2-{[3-chloro-5-(trifluoromethyl)pyridin-2-yl]oxy}-4-(2-methoxyethoxy)phenyl]propyl}benzenesulfonamide]
10 | 97 to 100 °C | COCCOc1ccc(CCCNS(=O)(=O)Cc2ccccc2)c(Oc2ncc(C(F)(F)F)cc2Cl)c1 [Example 19, N-{3-[2-{[3-chloro-5-(trifluoromethyl)pyridin-2-yl]oxy}-4-(2-methoxyethoxy)phenyl]propyl}-1-phenylmethanesulfonamide]
11 | 101.8 to 102 °C | COCCOc1ccc(CCCNS(=O)(=O)CCCc2ccccc2)c(Oc2ncc(C(F)(F)F)cc2Cl)c1 [Example 21, N-{3-[2-{[3-chloro-5-(trifluoromethyl)pyridin-2-yl]oxy}-4-(2-methoxyethoxy)phenyl]propyl}-3-phenylpropane-1-sulfonamide]
12 | 111 to 113 °C | COCCOc1ccc(CCCNS(=O)(=O)c2ccc(Cl)cc2)c(Oc2ncc(C(F)(F)F)cc2Cl)c1 [Example 22, 4-chloro-N-{3-[2-{[3-chloro-5-(trifluoromethyl)pyridin-2-yl]oxy}-4-(2-methoxyethoxy)phenyl]propyl}benzenesulfonamide]
13 | 110 to 114 °C | COCCOc1ccc(CCCNS(=O)(=O)c2cccc(Cl)c2)c(Oc2ncc(C(F)(F)F)cc2Cl)c1 [Example 24, 3-chloro-N-{3-[2-{[3-chloro-5-(trifluoromethyl)pyridin-2-yl]oxy}-4-(2-methoxyethoxy)phenyl]propyl}benzenesulfonamide]
14 | 106 to 106.5 °C | CCCCCS(=O)(=O)NC/C=C/c1ccc(OCCOC)cc1Oc1ncc(C(F)(F)F)cc1Cl [Example 27, N-{(2E)-3-[2-{[3-chloro-5-(trifluoromethyl)pyridin-2-yl]oxy}-4-(2-methoxyethoxy)phenyl]-2-propen-1-yl}pentane-1-sulfonamide]
15 | 125.5 to 126 °C | COCCOc1ccc(CCCNS(=O)(=O)c2ccccc2[N+](=O)[O-])c(Oc2ncc(C(F)(F)F)cc2Cl)c1 [Example 29, N-{3-[2-{[3-chloro-5-(trifluoromethyl)pyridin-2-yl]oxy}-4-(2-methoxyethoxy)phenyl]propyl}-2-nitrobenzenesulfonamide]
16 | 149 °C | CC(C)Oc1cc(CCCNC(=O)NS(=O)(=O)c2ccccc2)n(Cc2ccc(Cl)cc2Cl)n1 [Example 39, N-[({3-[1-(2,4-dichlorobenzyl)-3-isopropoxy-1H-pyrazol-5-yl]propyl}amino)carbonyl]benzenesulfonamide]
17 | 80 to 82 °C | CCCCCS(=O)(=O)NCC(C)Cc1ccc(OCCOC)cc1Oc1ncc(C(F)(F)F)cc1Cl (centres unmarked) [Example 41, N-{3-[2-{[3-chloro-5-(trifluoromethyl)pyridin-2-yl]oxy}-4-(2-methoxyethoxy)phenyl]-2-methylpropyl}pentane-1-sulfonamide]
18 | 120 to 120.5 °C | CCCCCS(=O)(=O)NC(=O)CCc1ccc(OC(C)C)cc1OCc1ccc(Cl)cc1Cl [Example 42, 3-{2-[(2,4-dichlorobenzyl)oxy]-4-isopropoxyphenyl}-N-(pentylsulfonyl)propanamide]
19 | 130 to 132 °C | COCCOc1ccc(CCC(=O)NS(=O)(=O)CCC(C)C)c(Oc2ncc(C(F)(F)F)cc2Cl)c1 [Example 43, 3-[2-{[3-chloro-5-(trifluoromethyl)pyridin-2-yl]oxy}-4-(2-methoxyethoxy)phenyl]-N-[(3-methylbutyl)sulfonyl]propanamide]
20 | 123 to 125 °C | CCN(CC)C(=O)COc1ccc(CCC(=O)NS(=O)(=O)CCC(C)C)c(Oc2ncc(C(F)(F)F)cc2Cl)c1 [Example 45, 3-{2-{[3-chloro-5-(trifluoromethyl)pyridin-2-yl]oxy}-4-[2-(diethylamino)-2-oxoethoxy]phenyl}-N-[(3-methylbutyl)sulfonyl]propanamide]
21 | 82.3 to 82.4 °C | COCCOc1ccc(CCCOC(=O)N2CCOCC2)c(Oc2ncc(C(F)(F)F)cc2Cl)c1 [Example 48, 3-[2-{[3-chloro-5-(trifluoromethyl)pyridin-2-yl]oxy}-4-(2-methoxyethoxy)phenyl]propyl morpholine-4-carboxylate]
22 | 91.7 to 91.8 °C | CCCCNC(=O)OCCCc1ccc(OCCOC)cc1Oc1ncc(C(F)(F)F)cc1Cl [Example 49, 3-[2-{[3-chloro-5-(trifluoromethyl)pyridin-2-yl]oxy}-4-(2-methoxyethoxy)phenyl]propyl butylcarbamate]
23 | 54 to 55.2 °C | CCCCN(C)C(=O)OCCCc1ccc(OCCOC)cc1Oc1ncc(C(F)(F)F)cc1Cl [Example 50, 3-[2-{[3-chloro-5-(trifluoromethyl)pyridin-2-yl]oxy}-4-(2-methoxyethoxy)phenyl]propyl butyl(methyl)carbamate]
24 | 94 to 94.5 °C | CCN(CC)C(=O)COc1ccc(CCCOC(=O)NCC2CC2)c(Oc2ncc(C(F)(F)F)cc2Cl)c1 [Example 52, 3-{2-{[3-chloro-5-(trifluoromethyl)pyridin-2-yl]oxy}-4-[2-(diethylamino)-2-oxoethoxy]phenyl}propyl (cyclopropylmethyl)carbamate]
25 | 112.8 to 113 °C | CCOC(=O)COc1ccc(CCCOC(=O)NCC2CC2)c(Oc2ncc(C(F)(F)F)cc2Cl)c1 [Example 53, ethyl {3-{[3-chloro-5-(trifluoromethyl)-pyridin-2-yl]oxy}-4-[3-({[(cyclopropylmethyl)amino]carbonyl}-oxy)propyl]phenoxy}acetate]
26 | 83.5 to 85 °C | COCCCNC(=O)OCCCc1ccc(OCCOC)cc1Oc1ncc(C(F)(F)F)cc1Cl [Example 55, 3-[2-{[3-chloro-5-(trifluoromethyl)pyridin-2-yl]oxy}-4-(2-methoxyethoxy)phenyl]propyl (3-methoxypropyl)carbamate]
27 | 66 to 68 °C | CCOCCNC(=O)OCCCc1ccc(OCCOC)cc1Oc1ncc(C(F)(F)F)cc1Cl [Example 56, 3-[2-{[3-chloro-5-(trifluoromethyl)pyridin-2-yl]oxy}-4-(2-methoxyethoxy)phenyl]propyl (2-ethoxyethyl)carbamate]
28 | 129.5 to 130 °C | COCCCS(=O)(=O)NC(=O)/C=C/c1ccc(OC(C)C)cc1Oc1ncc(C(F)(F)F)cc1Cl [Example 57, (2E)-3-[2-{[3-chloro-5-(trifluoromethyl)pyridin-2-yl]oxy}-4-isopropoxyphenyl]-N-[(3-methoxypropyl)sulfonyl]acrylamide]
29 | 122 to 124 °C | COCCOc1ccc(COC(=O)NS(=O)(=O)CCC(C)C)c(Oc2ncc(C(F)(F)F)cc2Cl)c1 [Example 59, 2-{[3-chloro-5-(trifluoromethyl)pyridin-2-yl]oxy}-4-(2-methoxyethoxy)benzyl [(3-methylbutyl)sulfonyl]carbamate]
30 | 160 to 161 °C | COCCOc1ccc(COC(=O)NS(=O)(=O)NCC(C)C)c(Oc2ncc(C(F)(F)F)cc2Cl)c1 [Example 60, 2-{[3-chloro-5-(trifluoromethyl)pyridin-2-yl]oxy}-4-(2-methoxyethoxy)benzyl [(isobutylamino)sulfonyl]carbamate]

Row | SMILES | melting point
31 | COCCOc1ccc(CCCOC(=O)NS(=O)(=O)c2ccc(C)cc2)c(Oc2ncc(C(F)(F)F)cc2Cl)c1.O (hydrate or solvate) [Example 30, 3-[2-{[3-chloro-5-(trifluoromethyl)pyridin-2-yl]oxy}-4-(2-methoxyethoxy)phenyl]propyl [(4-methylphenyl)sulfonyl]carbamate monohydrate] | 118 to 120 °C
32 | COCCOc1ccc(/C=C/COC(=O)NS(=O)(=O)c2ccc(Cl)cc2)c(Oc2ncc(C(F)(F)F)cc2Cl)c1.O.O (hydrate or solvate) [Example 37, (2E)-3-[2-{[3-chloro-5-(trifluoromethyl)pyridin-2-yl]oxy}-4-(2-methoxyethoxy)phenyl]-2-propen-1-yl [(4-chlorophenyl)sulfonyl]carbamate dihydrate] | 174.5 °C (dec.)
